According to PubChem BioAssay (NCI):
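Exposure lasted 48 hours, with cells grown in 96-well plates and compounds tested at five concentrations. TGI is the concentration that stops growth completely.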

Key:
Assay in all cases: growth of human tumour cells (NCI), 48 h
SN12C renal = test system: SN12C renal
MDA-MB-435 = test system: MDA-MB-435
M14 melanoma = test system: M14 melanoma
CAKI-1 renal = test system: CAKI-1 renal
HS 578T breast = test system: HS 578T breast
LOX IMVI melanoma = test system: LOX IMVI melanoma
OVCAR-5 ovarian = test system: OVCAR-5 ovarian
PC-3 prostate = test system: PC-3 prostate
UACC-257 melanoma = test system: UACC-257 melanoma
MDA-MB-231 breast = test system: MDA-MB-231 breast
MOLT-4 leukemia = test system: MOLT-4 leukemia
MALME-3M melanoma = test system: MALME-3M melanoma
HL-60(TB) leukemia = test system: HL-60(TB) leukemia
SF-539 CNS = test system: SF-539 CNS
HCT-15 colon = test system: HCT-15 colon
HT29 colon = test system: HT29 colon
HCT-116 colon = test system: HCT-116 colon
T-47D breast = test system: T-47D breast
SF-295 CNS = test system: SF-295 CNS
NCI-H226 lung = test system: NCI-H226 lung
SW-620 colon = test system: SW-620 colon
U251 CNS = test system: U251 CNS
K-562 leukemia = test system: K-562 leukemia
ACHN renal = test system: ACHN renal
EKVX NSCLC = test system: EKVX NSCLC
SK-MEL-2 melanoma = test system: SK-MEL-2 melanoma
SF-268 CNS = test system: SF-268 CNS
NCI-H522 lung = test system: NCI-H522 lung
SK-OV-3 ovarian = test system: SK-OV-3 ovarian
UACC-62 melanoma = test system: UACC-62 melanoma
HCC-2998 colon = test system: HCC-2998 colon
RPMI-8226 leukemia = test system: RPMI-8226 leukemia
NCI/ADR-RES ovarian = test system: NCI/ADR-RES ovarian
MDA-N = test system: MDA-N
DU-145 prostate = test system: DU-145 prostate
TK-10 renal = test system: TK-10 renal
CCRF-CEM leukemia = test system: CCRF-CEM leukemia
UO-31 renal = test system: UO-31 renal
A549 NSCLC = test system: A549 NSCLC
OVCAR-4 ovarian = test system: OVCAR-4 ovarian
SK-MEL-5 melanoma = test system: SK-MEL-5 melanoma
786-0 renal = test system: 786-0 renal
SR leukemia = test system: SR leukemia
MCF7 breast = test system: MCF7 breast
HOP-62 NSCLC = test system: HOP-62 NSCLC
BT-549 breast = test system: BT-549 breast
IGROV1 ovarian = test system: IGROV1 ovarian
SNB-75 CNS = test system: SNB-75 CNS
NCI-H23 lung = test system: NCI-H23 lung
NCI-H460 lung = test system: NCI-H460 lung
COLO 205 colon = test system: COLO 205 colon
SNB-19 CNS = test system: SNB-19 CNS
A498 renal = test system: A498 renal
OVCAR-3 ovarian = test system: OVCAR-3 ovarian
OVCAR-8 ovarian = test system: OVCAR-8 ovarian
KM12 colon = test system: KM12 colon

Measured: TGI

Nc1c(C(=O)O)nnc2ccc(Cl)cc12
> 100 µM: all assays above
